# Laboratory results: patent US20250027050A1, “LONG-TERM CULTURE OF COLORECTAL EPITHELIAL CELLS” (ISM CO., LTD., priority 2021, published 2025)
# Entries after “also recorded” stand apart in the source; their conditions may differ.
# Key:
# Assay type in all cases: cell-based
# [1] = test system: Primary human colonic epithelial cells (HCoEpiC); assay: Particle diameter and particle number in culture supernatant by NanoSight
# Protocol: (§1) Cells were completely dissolved in a water bath at 37° C. and seeded on 10 mL of the complete medium in a 10-cm dish coated with poly-L-lysine (poly-[…] 2 μg/cm^2, SCR) at 2.5×10^5 cells/dish. On the following day, the medium was replaced with a fresh complete medium. The medium was replaced with a complete medium every 3 or 4 days until 70% confluency was reached and then every other day while 70% to 90% confluency was reached. Cells reaching 90% confluency were removed using a 0.05% trypsin/EDTA solution (T/E, SCR) and seeded onto a 12-well plate (Fisher-brand 12-well tissue culture plate with a flat bottom) at 2×10^4 cells/well. Twenty four hours later, the medium was replaced with a complete medium containing or not containing Y-27632 (10 μM), and thereafter the medium was replaced every other day until 90% confluency was reached. When 90% confluency was reached, the cells were subcultured again, and the above-described procedures were continued for 72 days. The culture supernatant in the culture was recovered, and the particle diameter and the particle number were measured using a nanoparticle analysis system NanoSight (NS300, Malvern Panalytical Ltd.). Then, the signal intensities of exosome markers, CD9 and CD63, in the recovered culture supernatant were measured by an ExoScreen assay.
# [2] = test system: Primary human colonic epithelial cells (HCoEpiC); assay: ExoScreen assay of exosome markers CD9 and CD63 in culture supernatant
# Protocol: as §1
# [3] = test system: Primary human colonic epithelial cells (HCoEpiC); assay: Long-term culture of primary human colonic epithelial cells in the presence of low molecular weight compounds (cell number, morphology); details: for cell morphology during long-term culture: 10 μM Y-27632 solely added, after 72 days of culture; for continued growth / long-term culture of colorectal epithelial cells (number of cells): complete medium with 10 μM Y-27632 solely added, culture continued for 72 days, compared with A, C, YA, YC groups
# Protocol: Regarding Primary human colonic epithelial cells (HCoEpiC), Lot No. 17030 was purchased from ScienCell Research Laboratories, Inc. (SCR, Carlsbad, CA, United States) and used. A complete medium containing 5 mL of a colonic epithelial cell growth supplement (CoEpiCGS, SCR) and 5 mL of penicillin/streptomycin (P/S, SCR) added to 500 mL of a colonic epithelial cell medium (CoEpiCM, SCR) as a basal medium was used as a medium. To investigate the effect on release of exosomes, 10 μM Y-27632 (ROCK inhibitor) (Wako), 0.5 μM A-83-01 (ALK5/7/4 selective inhibitor) (Wako), and 3 μM CHIR99021 (GSK-3 inhibitor) (Axon Medchem, Reston, VA) were used. Cells were completely dissolved in a water bath at 37° C. and seeded on 10 mL of the complete medium in a 10-cm dish coated with poly-L-lysine (poly-[…] 2 μg/cm^2, SCR) at 2.5×10^5 cells/dish. On the following day, the medium was replaced with a fresh complete medium. The medium was replaced with a complete medium every 3 or 4 days until 70% confluency was reached and then every other day while 70% to 90% confluency was reached. Cells reaching 90% confluency were removed using a 0.05% trypsin/EDTA solution (T/E, SCR) and seeded onto a 12-well plate (Fisher-brand 12-well tissue culture plate with a flat bottom) at 2×10^4 cells/well. Twenty four hours later, the medium was replaced with a complete medium containing or not containing Y-27632 (10 μM), and thereafter the medium was replaced every other day until 90% confluency was reached. When 90% confluency was reached, the cells were subcultured again, and the above-described procedures were continued for 72 days.
structure (smiles),measurement,setting,value
"C[C@@H](N)[C@H]1CC[C@H](C(=O)Nc2ccncc2)CC1 [Y-27632, (1R,4r)-4-((R)-1-aminoethyl)-N-(pyridin-4-yl)cyclohexanecarboxamide]",particle number concentration in the medium,"[1]; Day 72 of culture, presence vs absence of Y-27632",higher in the absence of Y-27632
same,particle diameter of released vesicles,"[1]; culture supernatants at Day 28, Day 35, Day 72, Y(+) vs Y(−)",unchanged
same,exosomes detected using CD9 and CD63 markers (signal intensity),[2]; culture supernatant of HCoEpiC cultured in the presence vs absence of Y-27632,more exosomes were detected
same,decrease of CD9(+) exosomes after repeated passages,"[2]; in the presence of Y-27632, fraction decreased",about ⅓
same,cell morphology during long-term culture,[3],the morphology was unchanged
same,cell morphology during long-term culture,[3]; listed as Y,no morphological change was observed
same,continued growth / long-term culture of colorectal epithelial cells (number of cells),[3],continued growth over the longest period; also recorded: allowed long-term culture of colorectal epithelial cells
same,continued growth / long-term culture of colorectal epithelial cells (number of cells),[3]; listed as Y,Long-term culture was enabled
